How the values were obtained:
Assay in all cases: relative viability (nuclei count vs DMSO), 5 days (fraction); higher = more cells survive
Palbociclib + Pictilisib = compound: CC(=O)c1c(C)c2cnc(Nc3ccc(N4CCNCC4)cn3)nc2n(C2CCCC2)c1=O [Palbociclib] + CS(=O)(=O)N1CCN(Cc2cc3nc(-c4cccc5[nH]ncc45)nc(N4CCOCC4)c3s2)CC1 [Pictilisib] (partner 1 µM)
Method in brief: (§1)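 Lung cancer cell lines, seeded in 1536-well plates, were treated the following day by pin tool with a single drug or with five library-drug doses (not always all listed) in √10 steps on top of a fixed anchor-drug dose. Cells were fixed and nuclei stained in one step after 5 days, and nuclei were counted. Relative viability is the nuclei count for treated wells divided by that for vehicle wells, reported as medians of duplicate plates.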

Palbociclib + Tozasertib = compound: CC(=O)c1c(C)c2cnc(Nc3ccc(N4CCNCC4)cn3)nc2n(C2CCCC2)c1=O [Palbociclib] + Cc1cc(Nc2cc(N3CCN(C)CC3)nc(Sc3ccc(NC(=O)C4CC4)cc3)n2)n[nH]1 [Tozasertib] (partner 0.1 µM)
Method in brief: as §1

Palbociclib + Decitabine = compound: CC(=O)c1c(C)c2cnc(Nc3ccc(N4CCNCC4)cn3)nc2n(C2CCCC2)c1=O [Palbociclib] + Nc1ncn([C@H]2C[C@H](O)[C@@H](CO)O2)c(=O)n1 [Decitabine] (partner 2 µM)
Method in brief: as §1

Palbociclib + Pemetrexed = compound: CC(=O)c1c(C)c2cnc(Nc3ccc(N4CCNCC4)cn3)nc2n(C2CCCC2)c1=O [Palbociclib] + Nc1nc2[nH]cc(CCc3ccc(C(=O)N[C@@H](CCC(=O)O)C(=O)O)cc3)c2c(=O)[nH]1 [Pemetrexed] (partner 0.2 µM)
Method in brief: as §1

Row | Cell Line | relative viability (Palbociclib + Pictilisib; first compound 0.01 µM) | relative viability (Palbociclib + Pictilisib; first compound 0.03162 µM) | relative viability (Palbociclib + Pictilisib; first compound 0.1 µM) | relative viability (Palbociclib + Pictilisib; first compound 0.3162 µM) | relative viability (Palbociclib + Pictilisib; first compound 1 µM) | relative viability (Palbociclib + Tozasertib; first compound 0.01 µM) | relative viability (Palbociclib + Tozasertib; first compound 0.03162 µM) | relative viability (Palbociclib + Tozasertib; first compound 0.1 µM) | relative viability (Palbociclib + Tozasertib; first compound 0.3162 µM) | relative viability (Palbociclib + Tozasertib; first compound 1 µM) | relative viability (Palbociclib + Decitabine; first compound 0.01 µM) | relative viability (Palbociclib + Decitabine; first compound 0.03162 µM) | relative viability (Palbociclib + Decitabine; first compound 0.1 µM) | relative viability (Palbociclib + Decitabine; first compound 0.3162 µM) | relative viability (Palbociclib + Decitabine; first compound 1 µM) | relative viability (Palbociclib + Pemetrexed; first compound 0.01 µM) | relative viability (Palbociclib + Pemetrexed; first compound 0.03162 µM) | relative viability (Palbociclib + Pemetrexed; first compound 0.1 µM) | relative viability (Palbociclib + Pemetrexed; first compound 0.3162 µM) | relative viability (Palbociclib + Pemetrexed; first compound 1 µM)
1 | NCI-H661 | 0.407 | 0.409 | 0.379 | 0.3 | 0.251 | 0.332 | 0.346 | 0.324 | 0.302 | 0.3 | 0.547 | 0.484 | 0.476 | 0.461 | 0.39 | 0.878 | 0.792 | 0.645 | 0.571 | 0.416
2 | NCI-H838 | 0.393 | 0.329 | 0.307 | 0.348 | 0.197 | 0.272 | 0.248 | 0.213 | 0.194 | 0.204 | 0.455 | 0.461 | 0.48 | 0.434 | 0.353 | 0.354 | 0.234 | 0.242 | 0.29 | 0.18
3 | NCI-H1355 | 0.449 |  | 0.23 | 0.273 | 0.241 | 0.613 | 0.521 | 0.583 | 0.556 | 0.454 | 0.348 | 0.379 | 0.352 | 0.351 | 0.342 | 1.13 | 0.548 | 0.947 | 0.912 | 0.739
4 | NCI-H1395 | 0.616 | 0.542 | 0.507 | 0.494 | 0.425 | 0.791 | 0.709 | 0.627 | 0.676 | 0.635 | 0.741 | 0.704 | 0.656 | 0.702 | 0.641 | 0.797 | 0.812 | 0.786 | 0.838 | 0.65

Source: the supplement of paper PMC10307832
